Tests used:
[1] = system: Echinochloa crus-galli var. crus-galli; experiment: Foliage treatment with emulsions, dry rice field conditions (Test Example 2, Table 9); format: in vivo; details: 150 g a.i./ha; emulsion of Formulation Example 3; division stage 1~2; 20 days after foliage treatment
Text: (§1) Seeds of rice (Nampyung rice) and barnyard grasses (Echinochloa oryzicola and Echinochloa crus-galli var. crus-galli) were placed in sandy loam of pots, covered with soil, and grown in the dry rice field conditions.
(§2) Rice (6˜6.5-leaf stage, plant height 33.2 cm) and barnyard grasses (Echinochloa oryzicola: division stage 1˜2, plant height 38.0 cm, Echinochloa crus-galli var. crus-galli: division stage 1˜2, plant height 44.1 cm) were subjected to a foliage treatment with emulsions prepared according to Formulation Example 3 by using compounds of Examples 1, 5 and 13 (purity: 99% or more), wherein the emulsions were sprayed to the plants at a dosage of the active compound of 150 g/ha.
(§3) The herbicidal effect on the barnyard grasses and harmful effect on the rice of the test compounds at 20 days and 30 days after the foliage treatment were visually evaluated as in Test Example 1 in comparison with the untreated control, and the results are shown in Table 9.

Echinochloa oryzicola = experiment: as above; format: in vivo; details: 150 g a.i./ha; emulsion of Formulation Example 3; division stage 1~2; 20 days after foliage treatment
Text: as §1, §2, §3

Rice = experiment: Weed control test, 4-leaf stage plants (Test Example 1, Table 8); details: 4-leaf stage
Barnyard grass = experiment: as above; format: in vivo, Echinoch crus-galli Beauv. var. caudata Kitagawa
[2] = system: ECHOG (Echinoch crus-galli Beauv. var. caudata Kitagawa, barnyard grass); experiment: Weed control test, foliage treatment (Test Example 1, Table 7); format: in vivo; details: 3-leaf stage
In short: (§4)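 Post-emergence foliar spray, 2,000 l/ha aqueous emulsion (compound:acetone:emulsifier 1:5:1 w/w), applied once barnyard grass reached 3-leaf stage; greenhouse 20 to 30° C, sandy loam. Visual injury 1 to 100% vs untreated, 10 and 20 d post-treatment.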

[3] = system: SORBI (Andropogon sorghum, common sorgum); experiment: as above; format: in vivo
In short: as §4

[4] = system: SETVIR (Setaria viridis (L.) Beauv, green foxtail); experiment: as above; format: in vivo
In short: as §4

[5] = system: PANDI (Panium dichotomiflorum Michx, fall panicum); experiment: as above; format: in vivo
In short: as §4

[6] = system: DIGSA (Digitaria Sanguinalis (L.) SCOP, large crabgrass); experiment: as above; format: in vivo
In short: as §4

[7] = system: ZEAMX (Zea mays L., corn); experiment: as above; format: in vivo
In short: as §4

[8] = system: ARTHIS (Arthraxon hispidus (Thunb.) Makino, creek grass); experiment: as above; format: in vivo
In short: as §4

[9] = system: GLXMA (Glycine max(L.) MERR, soy bean); experiment: as above; details: soy bean, foliage treatment
[10] = system: ORYSA (Oryza sativa cv. Dongjin, rice); experiment: as above; details: rice, foliage treatment
[11] = system: TRZAW (Tritium aestivum L., wheat); experiment: as above; details: wheat, foliage treatment
[12] = system: HORVU (Hordeum vulgare L., barley); experiment: as above; details: barley, foliage treatment
rice (Nampyung rice) = experiment: Foliage treatment with emulsions, dry rice field conditions, harmful effect on rice (Test Example 2, Table 9); format: in vivo; details: 6~6.5-leaf stage, 150 g a.i./ha, emulsion
Text: as §1

## CCOC(=O)[C@@H](C)Oc1ccc(Oc2nc3ccc(Cl)cc3o2)cc1 [Phenoxaprop-P-ethyl, phenoxaprop-P-ethyl, reference compound]
[1]
  Herbicidal effect (0~100), 20 days, Echinochloa crus-galli var. crus-galli: 100%
Echinochloa oryzicola
  Herbicidal effect (0~100), 20 days, Echinochloa oryzicola: 100%
Rice; 0.025 kg/ha
  Plant damage (herbicidal activity), visually evaluated, Rice: 20%
Rice; 0.05 kg/ha
  Plant damage (herbicidal activity), visually evaluated, Rice: 30%
Rice; 0.1 kg/ha
  Plant damage (herbicidal activity), visually evaluated, Rice: 70%
Rice; 0.4 kg/ha
  Plant damage (herbicidal activity), visually evaluated, Rice: 80%
Barnyard grass; 0.025 kg/ha
  Plant damage (herbicidal activity), visually evaluated, Barnyard grass: 90%
Barnyard grass; 0.05 kg/ha
  Plant damage (herbicidal activity), visually evaluated, Barnyard grass: 100%
Barnyard grass; 0.1 kg/ha
  Plant damage (herbicidal activity), visually evaluated, Barnyard grass: 100%
Barnyard grass; 0.4 kg/ha
  Plant damage (herbicidal activity), visually evaluated, Barnyard grass: 100%
[2]; 0.025 kg/ha
  Plant damage (herbicidal activity), visually evaluated, ECHOG: 30%
[2]; 0.1 kg/ha
  Plant damage (herbicidal activity), visually evaluated, ECHOG: 100%
[2]; 0.2 kg/ha
  Plant damage (herbicidal activity), visually evaluated, ECHOG: 100%
[3]; 0.025 kg/ha
  Plant damage (herbicidal activity), visually evaluated, SORBI: 50%
[3]; 0.1 kg/ha
  Plant damage (herbicidal activity), visually evaluated, SORBI: 100%
[3]; 0.2 kg/ha
  Plant damage (herbicidal activity), visually evaluated, SORBI: 100%
[4]; 0.025 kg/ha
  Plant damage (herbicidal activity), visually evaluated, SETVIR: 20%
[4]; 0.1 kg/ha
  Plant damage (herbicidal activity), visually evaluated, SETVIR: 100%
[4]; 0.2 kg/ha
  Plant damage (herbicidal activity), visually evaluated, SETVIR: 100%
[5]; 0.025 kg/ha
  Plant damage (herbicidal activity), visually evaluated, PANDI: 30%
[5]; 0.1 kg/ha
  Plant damage (herbicidal activity), visually evaluated, PANDI: 100%
[5]; 0.2 kg/ha
  Plant damage (herbicidal activity), visually evaluated, PANDI: 100%
[6]; 0.025 kg/ha
  Plant damage (herbicidal activity), visually evaluated, DIGSA: 40%
[6]; 0.1 kg/ha
  Plant damage (herbicidal activity), visually evaluated, DIGSA: 100%
[6]; 0.2 kg/ha
  Plant damage (herbicidal activity), visually evaluated, DIGSA: 100%
[7]; 0.025 kg/ha
  Plant damage (herbicidal activity), visually evaluated, ZEAMX: 30%
[7]; 0.1 kg/ha
  Plant damage (herbicidal activity), visually evaluated, ZEAMX: 100%
[7]; 0.2 kg/ha
  Plant damage (herbicidal activity), visually evaluated, ZEAMX: 100%
[8]; 0.025 kg/ha
  Plant damage (herbicidal activity), visually evaluated, ARTHIS: 30%
[8]; 0.1 kg/ha
  Plant damage (herbicidal activity), visually evaluated, ARTHIS: 100%
[8]; 0.2 kg/ha
  Plant damage (herbicidal activity), visually evaluated, ARTHIS: 100%
[9]; 0.025 kg/ha
  Plant damage (herbicidal activity), visually evaluated, GLXMA: 0%
[9]; 0.1 kg/ha
  Plant damage (herbicidal activity), visually evaluated, GLXMA: 0%
[9]; 0.2 kg/ha
  Plant damage (herbicidal activity), visually evaluated, GLXMA: 0%
[10]; 0.025 kg/ha
  Plant damage (herbicidal activity), visually evaluated, ORYSA: 0%
[10]; 0.1 kg/ha
  Plant damage (herbicidal activity), visually evaluated, ORYSA: 0%
[10]; 0.2 kg/ha
  Plant damage (herbicidal activity), visually evaluated, ORYSA: 0%
[11]; 0.025 kg/ha
  Plant damage (herbicidal activity), visually evaluated, TRZAW: 0%
[11]; 0.1 kg/ha
  Plant damage (herbicidal activity), visually evaluated, TRZAW: 10%
[11]; 0.2 kg/ha
  Plant damage (herbicidal activity), visually evaluated, TRZAW: 10%
[12]; 0.025 kg/ha
  Plant damage (herbicidal activity), visually evaluated, HORVU: 0%
[12]; 0.1 kg/ha
  Plant damage (herbicidal activity), visually evaluated, HORVU: 20%
[12]; 0.2 kg/ha
  Plant damage (herbicidal activity), visually evaluated, HORVU: 40%
Rice (Nampyung rice); 20 days after foliage treatment
  Harmful effect, 20 days: 23%
Rice (Nampyung rice); 30 days after foliage treatment
  Harmful effect, 30 days: 38%

Source: patent US8293774B2, “Optically active (R)-aryloxypropionic acid amides and herbicidal composition comprising same” (Kyung Nong Corporation, priority 2007, dated 2012)
